{"source": "patent US20130064955A1", "about": "“NATURAL SWEETENED COMPOSITIONS AND METHODS FOR PREPARING THE SAME” (priority 2011, published 2013)", "key": {"[1]": {"test_system": "human sense of taste", "assay": "Determination of sweetness recognition threshold concentration by trained taste tester", "type": "in vivo", "details": "in water at room temperature; for minimal effective concentration: Homo sapiens, read-out: Sweetness recognition threshold Level", "description": "The term “sweetness recognition threshold concentration,” as generally used herein, is the lowest known concentration of a sweet compound that is perceivable by the human sense of taste. The sweetness recognition threshold level is specific for a particular compound, and varies based on temperature, matrix, ingredients and/or flavor system. The sweetness recognition threshold concentrations measurements and 5% sucrose equivalence measurements described herein were determined in water at room temperature.\nA sip (approximately 2-5 mL) of control sample, including but not limited to water, was tasted and swallowed by a trained taste tester. After allowing a 15-25 second interval to pass, a second sip of the control is tasted and swallowed. The taste properties of the control are determined and recorded by the trained taste tester. An unknown sample is then tasted and swallowed in the same manner, allowing a 15-25 second interval between the two sips. Preferably no more than ten additives are tested per day to avoid taste fatigue. Each sample was taken at least 1.5 hours following eating or drinking The sweetness recognition thresholds concentration of 21 steviol glycosides were determined in this manner, and are shown in Table 1."}, "[2]": {"test_system": "human sense of taste", "assay": "Sugar-like taste quality enhancement of Stevia sweeteners by steviol glycoside additives, taste test by trained individual;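 on Taste change of Stevia Sweetener JSS (380 ppm) with Steviol Glycoside Additive: code −B means less bitterness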", "type": "in vivo", "details": "for Taste change of Stevia Sweetener REBA (303 ppm) with Steviol Glycoside Additive / Taste change of Stevia Sweetener JSS (380 ppm) with Steviol Glycoside Additive / Taste change of Stevia Sweetener REBD (303 ppm) with Steviol Glycoside Additive: additive at or below its sweetness recognition threshold concentration, 5% sucrose equivalence, water, room temperature; for Taste change of Stevia Sweetener REBA (303 ppm) with Steviol Glycoside Additive: 97% pure rebaudioside A 303 ppm; for Taste change of Stevia Sweetener REBD (303 ppm) with Steviol Glycoside Additive: rebaudioside D 303 ppm", "description": "A steviol glycoside is added in an amount at or below sweetness recognition threshold concentration to a solution of water and a Stevia sweetener. The solution is maintained at room temperature. Each sample is taste tested by a trained individual, as described in Example 1, in duplicate. Preferably no more than ten steviol glycosides are tested per day to avoid taste fatigue. Each sample was taken at least 1.5 hours following eating or drinking\nThe Stevia sweeteners used in this study were 97% pure rebaudioside A, JSS, and rebaudioside D.\nThe steviol glycosides were used in at or below sweetness recognition threshold concentrations. […]"}}, "data": [{"compound": "C=C1C[C@@]23CC[C@H]4[C@@](C)(CCC[C@@]4(C)C(=O)OC4OC(C(=O)O)C(O)C(O)C4O)[C@@H]2CC[C@]1(O)C3", "note": "(stereo partly drawn) [Steviol glucuronide, steviol glucoronide]", "values": [{"measurement": "minimal effective concentration", "setting": "[1]", "value": 85, "unit": "µg/mL"}, {"measurement": "bitterness", "setting": "[2]; additive at 85 ppm, 5% SE JSS", "value": "less bitterness"}, {"measurement": "Taste change of Stevia Sweetener REBA (303 ppm) with Steviol Glycoside Additive", "setting": "[2]", "value": "N (N: no difference in presence or absence of steviol glycoside additive;)"}, {"measurement": "Taste change of Stevia Sweetener JSS (380 ppm) with Steviol Glycoside Additive", "setting": "[2]", "value": "−B"}, {"measurement": "Taste change of Stevia Sweetener REBD (303 ppm) with Steviol Glycoside Additive", "setting": "[2]", "value": "N (N: no difference in presence or absence of steviol glycoside additive;)"}]}, {"compound": "C=C1C[C@@]23CC[C@H]4[C@@](C)(CCC[C@@]4(C)C(=O)O)[C@@H]2CC[C@]1(O[C@@H]1O[C@H](CO)[C@@H](O)[C@H](O)[C@H]1O[C@@H]1O[C@H](CO)[C@@H](O)[C@H](O)[C@H]1O)C3", "note": "[Steviolbioside, steviolbioside]", "values": [{"measurement": "Sweetness recognition threshold Level", "setting": "[1]", "value": 50, "unit": "ppm"}, {"measurement": "Taste change of Stevia Sweetener REBA (303 ppm) with Steviol Glycoside Additive", "setting": "[2]", "value": "N (N: no difference in presence or absence of steviol glycoside additive;)"}, {"measurement": "Taste change of Stevia Sweetener JSS (380 ppm) with Steviol Glycoside Additive", "setting": "[2]", "value": "N (N: no difference in presence or absence of steviol glycoside additive;)"}, {"measurement": "Taste change of Stevia Sweetener REBD (303 ppm) with Steviol Glycoside Additive", "setting": "[2]", "value": "N (N: no difference in presence or absence of steviol glycoside additive;)"}]}, {"compound": "C=C1C[C@@]23CC[C@H]4[C@@](C)(CCC[C@@]4(C)C(=O)O[C@@H]4O[C@H](CO)[C@@H](O)[C@H](O)[C@H]4O)[C@@H]2CC[C@]1(O[C@@H]1O[C@H](CO)[C@@H](O)[C@H](O)[C@H]1O[C@@H]1O[C@H](CO)[C@@H](O)[C@H](O)[C@H]1O)C3", "note": "[Stevioside, stevioside]", "values": [{"measurement": "minimal effective concentration", "setting": "[1]", "value": 25, "unit": "µg/mL"}, {"measurement": "Taste change of Stevia Sweetener REBA (303 ppm) with Steviol Glycoside Additive", "setting": "[2]", "value": "N (N: no difference in presence or absence of steviol glycoside additive;)"}, {"measurement": "Taste change of Stevia Sweetener REBD (303 ppm) with Steviol Glycoside Additive", "setting": "[2]", "value": "N (N: no difference in presence or absence of steviol glycoside additive;)"}]}, {"compound": "rebaudioside B", "values": [{"measurement": "Sweetness recognition threshold Level", "setting": "[1]", "value": 25, "unit": "ppm"}, {"measurement": "Taste change of Stevia Sweetener REBA (303 ppm) with Steviol Glycoside Additive", "setting": "[2]", "value": "N (N: no difference in presence or absence of steviol glycoside additive;)"}, {"measurement": "Taste change of Stevia Sweetener JSS (380 ppm) with Steviol Glycoside Additive", "setting": "[2]", "value": "N (N: no difference in presence or absence of steviol glycoside additive;)"}, {"measurement": "Taste change of Stevia Sweetener REBD (303 ppm) with Steviol Glycoside Additive", "setting": "[2]", "value": "N (N: no difference in presence or absence of steviol glycoside additive;)"}]}, {"compound": "rebaudioside C", "values": [{"measurement": "Sweetness recognition threshold Level", "setting": "[1]", "value": 100, "unit": "ppm"}, {"measurement": "Taste change of Stevia Sweetener REBA (303 ppm) with Steviol Glycoside Additive", "setting": "[2]", "value": "N (N: no difference in presence or absence of steviol glycoside additive;)"}, {"measurement": "Taste change of Stevia Sweetener JSS (380 ppm) with Steviol Glycoside Additive", "setting": "[2]", "value": "N (N: no difference in presence or absence of steviol glycoside additive;)"}, {"measurement": "Taste change of Stevia Sweetener REBD (303 ppm) with Steviol Glycoside Additive", "setting": "[2]", "value": "N (N: no difference in presence or absence of steviol glycoside additive;)"}]}, {"compound": "rebaudioside F", "values": [{"measurement": "Sweetness recognition threshold Level", "setting": "[1]", "value": 25, "unit": "ppm"}, {"measurement": "Taste change of Stevia Sweetener REBA (303 ppm) with Steviol Glycoside Additive", "setting": "[2]", "value": "N (N: no difference in presence or absence of steviol glycoside additive;)"}, {"measurement": "Taste change of Stevia Sweetener JSS (380 ppm) with Steviol Glycoside Additive", "setting": "[2]", "value": "N (N: no difference in presence or absence of steviol glycoside additive;)"}, {"measurement": "Taste change of Stevia Sweetener REBD (303 ppm) with Steviol Glycoside Additive", "setting": "[2]", "value": "N (N: no difference in presence or absence of steviol glycoside additive;)"}]}]}
